From patent US20240262806A1, “INHIBITORS OF NLRP3” (PTC THERAPEUTICS, INC., priority 2021, published 2024) come the findings set out here.

Structures are written as SMILES. A value given as a limit tells only on which side of the number the result lay.

In this experiment the test system is NLRP3 inflammasome. The experiment can be described thus: IL-1β Secretion Assay (NLRP3-dependent IL-1β secretion in PMA-differentiated THP-1 cells, nigericin activation, HTRF). It is filed as cell-based. To be noted: Homo sapiens, THP-1, THP-1 cells, 100 ng/mL PMA 24 h, compound 20 h, 2.5 μM Nigericin 3 h; read-out: IC50 IL-1β Inhibition. A digest of the protocol:
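PMA-differentiated THP-1 cells in RPMI with 5% FBS were treated with compounds at 7 concentrations in threefold DMSO dilutions. NLRP3 was activated with nigericin and secreted IL-1β measured by HTRF. IC50 from a logistic fit of percent inhibition versus concentration.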
(In general: Time-resolved FRET reads energy transfer from a long-lived donor to a nearby acceptor.)
Usually IC50 stands for the concentration at which inhibition is half-maximal. On to `CN1CCC[C@@H](Nc2nnc(-c3ccc(Cl)cc3O)c3c2CCC3)C1` [Compound I-314], for which the IC50 was in the range of 1 to 10 nM.
In the case of `CN1CC[C@@H](F)[C@@H](Nc2nnc(-c3ccc(C(F)(F)F)cc3O)c3ccncc23)C1` [Compound I-315], the half-maximal inhibitory concentration (IC50) is less than 1 nM.
As for `C[C@]1(O)C[C@H](Nc2nnc(-c3ccc(C(F)(F)F)cc3O)c3ccncc23)C1` [Compound I-316], the IC50 was in the range of 1 to 10 nM.
With `OCCN1CCCC[C@@H](Nc2nnc(-c3ccc(C(F)(F)F)cc3O)c3ccncc23)C1` [Compound I-317], the IC50 was 1 to 10 nM.
Turning to `CCOC(=O)[C@@H]1CC[C@@H](Nc2nnc(-c3ccc(C(F)(F)F)cc3O)c3ccncc23)CN1C` [Compound I-318, Ethyl (2S,5R)-5-((1-(2-hydroxy-4-(trifluoromethyl)phenyl)pyrido[3,4-d]pyridazin-4-yl)amino)-1-methylpiperidine-2-carboxylate], the IC50 was less than 1 nM.
The result for `CN1CCC[C@@H](Nc2nnc(-c3ccc(OC(F)(F)F)cc3C(F)F)c3ccncc23)C1` [Compound I-319] reads 1 to 10 nM; that for `CN1CCC[C@@H](Nc2nnc(-c3cc(OC(F)(F)F)ccc3C(F)F)c3ccncc23)C1` [Compound I-320], 1 to 10 nM.
Consider `Cc1ccn2c(N[C@@H]3CCCN(C)C3)nnc(-c3ccc(C(F)(F)F)cc3O)c12` [Compound I-321, (R)-2-(8-Methyl-4-((1-methylpiperidin-3-yl)amino)pyrrolo[1,2-d][1,2,4]triazin-1-yl)-5-(trifluoromethyl)phenol], for which the 50% inhibitory concentration (IC50) was 10 to 100 nM.
For `CN1CCC[C@@H](Nc2nnc(-c3ccc(C(F)(F)F)cc3OC(F)F)c3cccn23)C1` [Compound I-322, 1-[2-(Difluoromethoxy)-4-(trifluoromethyl)phenyl]-N-[(3R)-1-methyl-3-piperidyl]pyrrolo[1,2-d][1,2,4]triazin-4-amine], the IC50 is less than 1 nM.
The result for `FC(F)OCCN1CCC[C@@H](Nc2nnc(-c3ccc(C(F)(F)F)cc3OC(F)F)c3cccn23)C1` [Compound I-323, 1-[2-(difluoromethoxy)-4-(trifluoromethyl)phenyl]-N-[(3R)-1-[2-(difluoromethoxy)ethyl]-3-piperidyl]pyrrolo[1,2-d][1,2,4]triazin-4-amine] reads 1 to 10 nM; that for `FC(F)Oc1cc(C(F)(F)F)ccc1-c1nnc(N[C@@H]2CCCCCNC2)n2cccc12` [Compound I-324, 1-[2-(difluoromethoxy)-4-(trifluoromethyl)phenyl]-N-[(3R)-azocan-3-yl]pyrrolo[1,2-d][1,2,4]triazin-4-amine], 1 to 10 nM.
With `OCCN1CCC[C@@H](Nc2nnc(-c3ccc(C(F)(F)F)cc3OC(F)F)c3cccn23)C1` [Compound I-325, 2-[(3R)-3-[[1-[2-(Difluoromethoxy)-4-(trifluoromethyl)phenyl]pyrrolo[1,2-d][1,2,4]triazin-4-yl]amino]-1-piperidyl]ethanol], the IC50 is 1 to 10 nM.
Consider `FC(F)Oc1cc(C(F)(F)F)ccc1-c1nnc(N[C@@H]2CCCN(C3CCOCC3)C2)n2cccc12` [Compound I-326], for which the half-inhibitory concentration (IC50) was less than 1 nM.
With `Cc1cc2c(-c3ccc(C4CC4)cc3O)nnc(N[C@@H]3CCCN(C)C3)n2n1` [Compound I-327] the figure was 1 to 10 nM; with `Cc1cc2c(-c3ccc(C(F)(F)F)cc3O)nnc(N[C@@H]3CCCN(C)C3)n2n1` [Compound I-329, (R)-2-(2-methyl-7-((1-methylpiperidin-3-yl)amino)pyrazolo[1,5-d][1,2,4]triazin-4-yl)-5-(trifluoromethyl)phenol], less than 1 nM; with `Cc1cc2c(-c3ccc(C(F)(F)F)cc3OC(F)F)nnc(N[C@@H]3CCCN(C)C3)n2n1` [Compound I-330], 1 to 10 nM.
Turning to `Cc1cc2c(N[C@@H]3CCCNC3)nnc(-c3ccc(C(F)(F)F)cc3O)n2n1` [Compound I-332], the IC50 is 10 to 100 nM.
For the compound `CN1CCC[C@@H](Nc2nnc(-c3ccc(C(F)(F)F)cc3O)c3cncn23)C1` [Compound I-333, 2-[4-[[(3R)-1-Methyl-3-piperidyl]amino]imidazo[1,5-d][1,2,4]triazin-1-yl]-5-(trifluoromethyl)phenol], the IC50 was less than 1 nM.
